Test results reported in paper PMC5293585, “Characteristics of a water-forming NADH oxidase from Methanobrevibacter smithii, an archaeon in the human gut” (Bioscience Reports, 2016).

How the values were obtained:
[1] = target: T1, NOX-ms (Methanobrevibacter smithii, UniProt A5UJ73); test: NADH oxidation at A340, Michaelis-Menten fit; format: biochemical; conditions: apparent; O2 as co-substrate (aerobic); NADH 0.02-0.6 mM; optimal conditions (about 37°C, 50 mM sodium phosphate)
T1 construct: gene Msm_0046; N-terminal His-tag (pET28a, EcoRI/XhoI), tag kept; E. coli BL21(DE3); FAD-containing holoenzyme (apo form for the FAD row)
T1 sequence (A5UJ73 1-444): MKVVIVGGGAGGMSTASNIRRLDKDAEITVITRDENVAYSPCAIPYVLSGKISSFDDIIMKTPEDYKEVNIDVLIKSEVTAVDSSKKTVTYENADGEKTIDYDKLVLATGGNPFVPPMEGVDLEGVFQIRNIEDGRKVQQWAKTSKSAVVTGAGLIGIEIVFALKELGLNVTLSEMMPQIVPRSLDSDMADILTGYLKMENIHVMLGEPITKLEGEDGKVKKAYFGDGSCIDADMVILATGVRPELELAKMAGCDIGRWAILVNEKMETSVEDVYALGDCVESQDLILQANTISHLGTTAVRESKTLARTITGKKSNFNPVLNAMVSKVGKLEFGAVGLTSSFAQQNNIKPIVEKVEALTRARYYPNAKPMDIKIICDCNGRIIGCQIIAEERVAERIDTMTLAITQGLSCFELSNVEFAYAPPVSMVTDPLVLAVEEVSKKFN

[2] = target: T2, NOX-ms (Methanobrevibacter smithii, UniProt A5UJ73, C230A); test: NADH oxidation at A340, relative activity; format: biochemical; conditions: apparent; O2 as co-substrate (aerobic); NADH 0.02-0.6 mM; optimal conditions (about 37°C, 50 mM sodium phosphate)
T2 construct: gene Msm_0046; N-terminal His-tag (pET28a, EcoRI/XhoI), tag kept; E. coli BL21(DE3); FAD-containing holoenzyme (apo form for the FAD row)
T2 sequence (A5UJ73 entry or part of it C230A): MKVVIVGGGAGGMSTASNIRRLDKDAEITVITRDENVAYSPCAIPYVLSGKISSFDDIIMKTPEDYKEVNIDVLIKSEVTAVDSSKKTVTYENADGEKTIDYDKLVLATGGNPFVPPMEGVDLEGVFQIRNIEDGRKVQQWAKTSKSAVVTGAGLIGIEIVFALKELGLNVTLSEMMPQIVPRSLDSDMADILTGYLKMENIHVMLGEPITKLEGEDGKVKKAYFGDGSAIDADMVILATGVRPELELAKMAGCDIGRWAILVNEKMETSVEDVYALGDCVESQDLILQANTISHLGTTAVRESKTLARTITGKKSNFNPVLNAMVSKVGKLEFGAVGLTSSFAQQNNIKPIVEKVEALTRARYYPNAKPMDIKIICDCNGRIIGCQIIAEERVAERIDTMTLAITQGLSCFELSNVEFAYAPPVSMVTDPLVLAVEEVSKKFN

[3] = target: T1, NOX-ms; test: absorption spectrum of holo, apo and reconstituted enzyme; activity restored by FAD; format: binding; conditions: apoenzyme reconstituted with equimolar FAD, room temperature, 5 min, dialysed

SMILES | Km [1] [µM] | NADH oxidation at A340, relative activity [2] | absorption spectrum of holo, apo and reconstituted enzyme; activity restored by [3]
NC(=O)C1=CN([C@@H]2O[C@H](COP(=O)(O)OP(=O)(O)OC[C@H]3O[C@@H](n4cnc5c(N)ncnc54)[C@H](O)[C@@H]3O)[C@@H](O)[C@H]2O)C=CC1 [NADH] | 47.8 to 54.6 | the C230A mutant had similar NOX activity to that of the wild-type protein | 
Cc1cc2nc3c(=O)[nH]c(=O)nc-3n(C[C@H](O)[C@H](O)[C@H](O)COP(=O)(O)OP(=O)(O)OC[C@H]3O[C@@H](n4cnc5c(N)ncnc54)[C@H](O)[C@@H]3O)c2cc1C [FAD] |  |  | The holoenzyme can be reconstituted by incubating equimolar concentrations of apomonomers and FAD
